Data: US10080756B2, “Combination methods for treating cancers” (Gilead Sciences, Inc., priority 2014, dated 2018)

Experiments:
[1] = Plasma levels in SU-DHL-10 xenograft study; assay type: in vivo, mouse
Description: On the 16th day post-tumor implantation, animals with established tumors (n=9 animals per group) were treated for 3 days by oral gavage with either vehicle or Entospletinib at 75 mg/kg or 25 mg/kg twice daily (BID). […] This dose level is designated 75/50 mg/kg.
Efficacy was evaluated by tumor volume measurements. Plasma levels of Entospletinib and vincristine were evaluated on the third day of dosing Entospletinib (Day 19) and the last day of dosing (Day 32). Tolerability was evaluated by daily observations, body weight (3 times per week) and circulating blood cell counts at the end of the study.

[2] = test system: SU-DHL-2; assay: Cell Titer Glo viability assay, SU-DHL-2; assay type: cell-based; conditions: Homo sapiens; SU-DHL-2, DLBCL; single agent; 72 hours; read-out: Inhibition of Viability, EC50
Description: (§1) All procedures were performed at Gilead Sciences, Inc. in Branford, The compound of formula (I), cyclophosphamide, doxorubicin and vincristine sulfate were dissolved in DMSO to prepare stock solutions that were serially diluted three-fold in DMSO in a 96 well plate format at 1000× so the final starting assay concentrations tested would be 10 μM, 200 μM, 10 μM, and 1 μM respectively, for each compound. Compound plates were diluted 1:100 in RPMI without serum or additives creating a 10× stock. Cells were seeded into a 96-well plate at 10,000-20,000 cells per well in 100 μl of growth media appropriate to the cell line supplemented with 100 U/L penicillin-streptomycin. OCI-Ly3, OCI-Ly4 and OCI-Ly7 were grown in Iscove's+20% FBS, OCI-Ly19 was grown in alphaMEM+20% FBS, and all other cell lines were grown in RPMI+10% FBS. To each well, 11 μl of 10× compound was added in a final concentration of 0.1% DMSO and cells were incubated at 37° C. in 5% CO2 for 72 hours. Cell viability was assessed with Cell Titer Glo (Promega, Madison, Wis.) following the manufacturer's protocol on an Envision plate reader (Perkin Elmer, Waltham, Mass.). EC50 values were determined using a four parameter variable slope model with GraphPad Prism 6.0 software. All EC50 values represent mean values of from duplicate dose response curves.

[3] = test system: 10 diffuse large B-cell lymphoma (DLBCL), 4 multiple myeloma (MM), 2 follicular lymphoma (FL), and 1 mantle cell lymphoma (MCL) cell lines; assay: Cell Titer Glo viability assay, summary over all cell lines tested; assay type: cell-based; conditions: at concentrations <3000 nM
Description: as §1

[4] = test system: SU-DHL-10; assay: SU-DHL-10 mouse xenograft model of diffuse large B cell lymphoma, tumor growth; assay type: in vivo; conditions: for complete or partial regressions (in words): single agents; for partial tumor regressions: treatment alone
Description: Entospletinib was evaluated for efficacy in vivo as a single agent and in combination with vincristine in a subcutaneous cell line tumor xenograft model in male SCID beige mice using the human diffuse large B-cell lymphoma cell line, SU-DHL-10 in a 2×2 dose level matrix of Entospletinib and vincristine.
Formulation—Entospletinib was formulated in a complete vehicle of 0.5% HPMC-0.2% Tween 80 (pH 3.5 50 mM acetate buffer, and the lower dose was prepared by direct dilution). The high dose formulation was mixed using a stir bar (and Polytroned briefly as needed to break up clumps of compound) to form a yellow solution (pH=1.8), which became an opaque suspension within 30 minutes. The dosing suspension was prepared fresh daily and stored at 4° C. protected from light between treatments.
The formulation for the highest dose group of vincristine was prepared by diluting the stock solution with 0.9% sterile saline, and the lower dose was prepared by direct dilution of that stock with saline. […] The dosing formulations were prepared just prior to each treatment.
Male Harlan SCID beige mice (C.B-17/IcrHsd-Prkdc^scidLyst^bg-J) were used in this study. They were 6-7 weeks old on Day 1 of the experiment and were fed irradiated Harlan 2918.15 Rodent Diet and water ad libitum. Animals were housed in static cages with Bed-O'Cobs™ bedding (The Andersons Lab Bedding Products) inside Biobubble® Clean Rooms that provide H.E.P.A filtered air into the bubble environment at 100 complete air changes per hour. All treatments, body weight determinations, and tumor measurements were carried out in the bubble environment. The environment was controlled to a temperature range of 70°±2° F. and a humidity range of 30-70%.
SU-DHL-10 cells were obtained from Leibniz Institute DSMZ-German Collection of Microorganisms and Cell Cultures (DSMZ). They were grown in RPMI 1640 medium which was modified with 1% 100 mM Na pyruvate, 1% 1M HEPES buffer, 1% of a 45% glucose solution and supplemented with 10% non-heat-inactivated Fetal Bovine Serum (FBS) and 1% 100× Penicillin/Streptomycin/L-Glutamine (PSG). The growth environment was maintained in an incubator with a 5% CO2 atmosphere at 37° C. The cells were centrifuged at 200 rcf for 8 minutes at 8° C., the supernatant aspirated, and the pellet re-suspended in cold Dulbecco's Phosphate Buffered Saline (DPBS) by pipetting. An aliquot of the homogeneous cell suspension was diluted with a trypan blue solution and counted using a Luna automated cell counter. The pre-implantation cell viability was 91%. The cell suspension was centrifuged at 200 rcf for 8 minutes at 8° C. The supernatant was aspirated and the cell pellet was re-suspended in cold 50% serum-free medium:50% Matrigel® Matrix (Corning) to generate a final concentration of 2.5E+07 cells/ml. The cell suspension was maintained on wet ice during implantation. Following implantation, an aliquot of the remaining cells was diluted with a trypan blue solution and counted to determine the post-implantation cell viability (91%). Test animals were implanted subcutaneously, high in the axilla (just under the fore limb) on Day 0 with 5.0×10^6 cells in 0.2 ml of 50% serum-free medium: 50% Matrigel® Matrix using a 27-gauge needle and syringe.
All mice were sorted into study groups based on tumor burden (estimated from caliper measurements). Efficacy was evaluated by tumor volume/weight monitored during and after treatment. Tumor burden (mg) was measured three times weekly by using caliper measurements and converting to tumor mass by the formula for the volume of a prolate ellipsoid assuming unit density as: Tumor burden (mg)=(L×W^2)/2 • where L and W are the respective orthogonal tumor length and width measurements (mm). The criteria used for a successful distribution in this study was a mean tumor burden for all groups within 10% of the overall mean tumor burden for the study population Treatment began on Day 16 at an overall mean tumor burden of 197 mm^3. […]

[5] = Cell Titer Glo viability assay, summary over all cell lines tested; assay type: cell-based; conditions: B-cell; range over the 17 cell lines of Table 1; read-out: EC50 values to inhibit cell viability, range over cell lines
Description: as §1

Compound	plasma concentrations on the third day of dosing ([1]; 75 mg/kg BID)	plasma concentrations at the end of study at Cmin (trough) ([1]; 25 and 50 mg/kg BID, respectively, compared with mouse whole blood values for inhibition of SYK)	EC50 [2] [µM]	inhibition of cell viability in any of the cell lines tested [3]	Day 31 % Tumor Growth Inhibition ([4]; ENTO 25 mg/kg BID + Vehicle for VCR Q7Dx3 (group 3)) [%]	Day 31 % Tumor Growth Inhibition ([4]; ENTO 75/50 mg/kg BID + Vehicle for VCR Q7Dx3 (group 2)) [%]	inhibition of tumor growth (in words) ([4]; Entospletinib dosed alone at 25 or 75/50 mg/kg)	complete or partial regressions (in words) [4]	partial tumor regressions [4] [%]	EC50 [5] [µM]	Day 31 % Tumor Growth Inhibition ([4]; Vehicle for ENTO + VCR 0.15 mg/kg Q7Dx3 (group 5)) [%]	Day 31 % Tumor Growth Inhibition ([4]; Vehicle for ENTO + VCR 0.5 mg/kg Q7Dx3 (group 4)) [%]	inhibition of tumor growth (in words) ([4]; vincristine at both 0.15 and 0.5 mg/kg)
c1cn2cc(-c3ccc4cn[nH]c4c3)nc(Nc3ccc(N4CCOCC4)cc3)c2n1 [Compound of Formula I, 6-(1H-indazol-6-yl)-N-(4-morpholinophenyl)imidazo[1,2-a]pyrazin-8-amine]	higher than planned plasma concentrations	exceed the in vitro pervanadate-stimulated mouse whole blood EC50 and EC50 values for inhibition of SYK	> 3	did not show inhibition cell viability	20	39	inhibited tumor growth but to a lesser degree than that seen with vincristine	no complete or partial regressions	0				
CC[C@]1(O)C[C@H]2CN(CCc3c([nH]c4ccccc34)[C@@](C(=O)OC)(c3cc4c(cc3OC)N(C=O)[C@H]3[C@@](O)(C(=O)OC)[C@H](OC(C)=O)[C@]5(CC)C=CCN6CC[C@]43[C@@H]65)C2)C1 [Vincristine, vincristine]			0.065					no complete or partial regressions	0	≤ 0.103	42	85	significant inhibition of tumor growth
